Consider two molecules from article PMC10157742, “Supramolecular nanofibers co-loaded with dabrafenib and doxorubicin for targeted and synergistic therapy of differentiated thyroid carcinoma” (Theranostics, 2023).

By IC50 is commonly meant the concentration needed to halve the response being measured.

The subject of data set [1] is BCPAP cells. The data set is described as follows: In vitro cytotoxicity, MTT assay. The format is cell-based. Particulars: Homo sapiens, 48 h, Da/Dox mass ratio 1:1, value given for Dox, n = 3. How it is done: The cytotoxicity of peptides, free agents, and the co-assemblies towards BCPAP and L02 cells was evaluated using the standard MTT assay. Briefly, the cells were seeded into 96-well plates at a density of 8×10^3 cells per well in 100μL of DMEM medium containing 10% FBS and 1% penicillin-streptomycin. After overnight pre-incubation, the cells were treated with the compound, free agents, and co-assemblies at different concentrations for 48 h. Untreated tumor cells were used as controls. Subsequently, the medium was replaced with an MTT solution (100 μL, 0.5 mg/mL) and further cultured for 4 h. Finally, the supernatant was removed and 100 μL of DMSO was added to each well to dissolve the purple crystals. Cell viability was measured using a microplate reader by recording the absorbance of the formazan product at 570 nm.
On the technique in general: Formazan colour is commonly taken as a measure of viable cells.

In data set [2] the test system is BCPAP cells. In words: Cell apoptosis analysis, Annexin V-APC/7-AAD flow cytometry. Type of data set: cell-based, human. The settings on record: 36 h, 0.5 µM (Dox or Da). How it is done:
Apoptosis in BCPAP cells was measured using an Annexin V-APC/7-AAD Apoptosis Detection Kit. Briefly, BCPAP cells in DMEM were seeded into 6-well plates at a density of 3×10^5 cells per well and incubated overnight. After treatment with PBS and Dox concentration of 0.5 µM for 36 h, the cells were trypsinized, collected, washed twice with cold PBS, and centrifuged at 1500 rpm for 5 min. The precipitated cells were resuspended in 500 μL Annexin V-APC binding buffer and incubated with 5 μL Annexin V-APC and 5 μL 7-AAD at room temperature for 15 min in the dark. The samples were then analyzed using a flow cytometer.
On the technique in general: A flow cytometer gives signals particle by particle.

For the next data set, the system named is BCPAP xenograft. In words: In vivo antitumor activity. The settings on record: NSG mice, i.v. every four days five times, 0.5 mg/kg Dox or Da, day 20, mean ± SD, n = 4. The method, then: (§1) All animal experiments were performed according to the protocol approved by the Animal Care and Use Committee of the Tianjin Medical University Cancer Institute and Hospital. NSG mice (5 weeks, female) were purchased from Gempharmatech Co., Ltd. (Jiangsu, China). […] The body weight and tumor size of each mouse were monitored and recorded every two days during the treatment process of 20 days. The tumor volume (V) was measured with a digital caliper and calculated using the equation: V= (L×W^2)/2, where W and L refer to the […] diameters of the tumors, respectively. At the end of the experiment, the mice were euthanized, and the tumor tissues and main organs (heart, liver, spleen, lung, and kidney) were photographed, weighed, and collected. Furthermore, the collected ex vivo tumors and main organs were fixed with 4% paraformaldehyde for the subsequent hematoxylin and eosin (H&E), terminal deoxynucleotidyl transferase-mediated deoxyuridine triphosphate nick end labeling (TUNEL), and immunohistochemical staining, including Ki67, BRAF V600E, p-ERK, Bcl-2, Bax and Cleaved-Caspase 3. Blood was obtained from the mouse eye socket for blood biochemistry and routine blood analysis, which was compared with the blank group without tumor inoculation.

Data set [3] in a line: Body weight and serum ALT in the antitumor study. Type of data set: in vivo. The settings on record: tumor-bearing NSG mice, n = 4. The method, then: as §1

With `CC(C)(C)c1nc(-c2cccc(NS(=O)(=O)c3c(F)cccc3F)c2F)c(-c2ccnc(N)n2)s1` [Da, dabrafenib], in the data set on BCPAP cells [1], the IC50 came out at 2.08 µM. The total apoptosis rate in the data set with BCPAP cells [2] is 5.17%. Also, the “tumor weight at the end of the experiment” value with BCPAP xenograft is on record as 459.6 ± 43.2 mg.
Consider `COc1cccc2c1C(=O)c1c(O)c3c(c(O)c1C2=O)C[C@@](O)(C(=O)CO)C[C@@H]3O[C@H]1C[C@H](N)[C@H](O)[C@H](C)O1` [Dox, doxorubicin], for which the IC50 in the data set on BCPAP cells [1] was 1.72 µM. This molecule had a total apoptosis rate in the data set on BCPAP cells [2] of 7.08%. Moreover, in the data set with BCPAP xenograft, the “tumor weight at the end of the experiment” value is listed as 284.7 ± 36.4 mg. The body weight entry in data set [3] (0.5 mg/kg i.v. every four days five times, 20 days) is reported as “slight decrease”. Moreover, the “serum glutamic pyruvic transaminase (ALT) level” value in data set [3] (end of the antitumor experiment) is given as “elevated ALT levels”.
